One test deals with ectodomains of RER. Kind of test: Pull-down assay with HA-Flag-tagged RER ectodomains and biotinylated peptides. Format: binding, tomato. The following applies: biotinylated peptide.
Test [1] deals with RER1-SERKs receptor complex. Briefly: Co-immunoprecipitation of RER with SERKs in tobacco leaves. Format: cell-based, tomato. The following applies: 100 nM REF1. Here is the method: (§1) FIG. 49—REF1-RER1 regulates regeneration through SERK co-receptors. (a) RER1 complexes with SERK1, SERK3a and SERK3b in a REF1-dependent manner. Tobacco leaves transfected with SERKs-myc and RER1-HA-Flag were treated with 100 nM REF1 before IP with anti-myc agarose. RER1 and SERKs were detected by immunoblotting with anti-Flag or anti-myc antibodies, respectively. (b and c) REF1-induced callus formation of indicated genotypes. Hypocotyl explants were cultured on CIM with or without 1 nM REF1 for 14 d before callus phenotype was scored. Shown are representative callus images (b) and quantification of the callus projection area (c). Bars, 1 mm. Data are mean±SE. n=30 hypocotyl explants. (d and e) REF1-induced shoot organogenesis of indicated genotypes. Hypocotyl explants were cultured on CIM for 14 d and then transferred to SIM with or without 1 nM REF1 for 21d before shoot organogenesis phenotype was scored. Shown are representative images of hypocotyl explants (d) and the number of regenerated shoots per explant (e). Bars, 0.5 cm. Data are mean±SE. n=50 hypocotyl explants. In (c), the projected area of callus was quantified by Image J. Box plots represented the distribution of projected callus area. […] In (c) and (e), data points from three biological replicates were analysed with a one-sided Kruskal-Wallis test with Holm correction, followed by post hoc Dunn's test. […]
Chain of RER1-SERKs receptor complex (as listed by the source): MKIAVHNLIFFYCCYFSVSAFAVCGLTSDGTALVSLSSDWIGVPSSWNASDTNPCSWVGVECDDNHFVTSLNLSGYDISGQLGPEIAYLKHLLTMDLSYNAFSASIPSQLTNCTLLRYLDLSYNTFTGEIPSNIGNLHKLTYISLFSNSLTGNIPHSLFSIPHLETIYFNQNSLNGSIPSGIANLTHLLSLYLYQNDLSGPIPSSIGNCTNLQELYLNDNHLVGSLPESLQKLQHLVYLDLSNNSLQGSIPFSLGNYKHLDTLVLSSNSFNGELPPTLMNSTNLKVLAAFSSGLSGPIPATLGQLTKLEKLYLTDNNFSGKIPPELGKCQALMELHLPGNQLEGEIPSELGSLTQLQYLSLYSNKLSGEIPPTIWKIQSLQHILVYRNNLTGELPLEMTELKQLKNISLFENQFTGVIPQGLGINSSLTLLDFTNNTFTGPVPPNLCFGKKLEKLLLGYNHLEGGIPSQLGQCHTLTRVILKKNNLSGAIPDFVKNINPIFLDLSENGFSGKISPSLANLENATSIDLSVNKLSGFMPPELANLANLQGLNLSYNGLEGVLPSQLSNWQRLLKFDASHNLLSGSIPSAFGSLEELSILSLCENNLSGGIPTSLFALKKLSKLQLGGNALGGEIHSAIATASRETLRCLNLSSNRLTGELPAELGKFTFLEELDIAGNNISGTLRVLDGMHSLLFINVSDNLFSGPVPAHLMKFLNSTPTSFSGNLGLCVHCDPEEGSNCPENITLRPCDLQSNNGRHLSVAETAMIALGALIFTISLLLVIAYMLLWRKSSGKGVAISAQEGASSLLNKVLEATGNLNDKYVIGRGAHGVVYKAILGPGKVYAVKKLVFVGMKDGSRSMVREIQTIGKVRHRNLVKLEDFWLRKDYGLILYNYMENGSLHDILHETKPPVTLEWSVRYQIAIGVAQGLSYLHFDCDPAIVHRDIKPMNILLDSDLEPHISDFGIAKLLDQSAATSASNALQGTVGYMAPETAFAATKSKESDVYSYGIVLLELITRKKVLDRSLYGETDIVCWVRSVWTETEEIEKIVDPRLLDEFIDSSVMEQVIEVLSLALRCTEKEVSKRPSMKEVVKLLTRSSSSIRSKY

Test [2] deals with serk and sIwind1 mutant hypocotyl explants. Briefly: Callus formation and shoot organogenesis of serk and sIwind1 mutant hypocotyl explants. Format: cell-based, tomato. The following applies: 1 nM REF1. Here is the method:
as §1, with “(d and e) REF1-induced shoot organogenesis of indicated genotypes.” left out, “Shown are representative images of hypocotyl explants (d) and the number of regenerated shoots per explant (e). Bars, 0.5 cm. Data are mean±SE. n=50 hypocotyl explants.” left out
(a) Induction of the SIWIND1 promoter activity at the wound sites of hypocotyl explants. […] Hypocotyl explants were cultured on CIM with or without 1 nM REF1 for 14 d before callus phenotype was scored. […]

The test system of a further test is RER. Kind of test: pFRK1::LUC expression in A. thaliana protoplasts (receptor activation). Format: cell-based, tomato. To be noted: 3 h.
The next test relates to PI126944 tomatoes. Briefly: Shoot regeneration of recalcitrant wild tomato PI126944. The format is cell-based, S. peruvianum. The following applies: PI126944, 1 nM REF1 vs REF1 absent. As for the experimental part:
(a) photos of PI126944 grown in the presence and absence of 1 nM REF1. (b) relative regeneration frequency of PI126944 grown in the presence and absence of 1 nM REF1. (c) number of hypocotyl of PI126944 grown in the presence and absence of 1 nM REF1.
(a) Photos of P126944 tomatoes (WT, PRR transformed, RER transformed, and PRR+RER transformed, grown in presence or absence of 1 nM REF1 for 19 days. (b) relative regeneration frequency of P126944 tomatoes (WT, PRR transformed, RER transformed, and PRR+RER transformed, grown in presence or absence of 1 nM REF1 for 19 days.
The effect of exogenously applied REF1 in a shoot inducing growth medium was investigated in PI126944 tomatoes by growing PI126944 tomatoes in the presence and absence of 1 nM REF1.
PI126944 tomatoes were transformed with the PRR+RER-OE construct as well as an equivalent construct only containing PRR and another construct only containing RER. Plants expressing these constructs along with a wild type control were grown in the presence or absence of REF1 for 19 days.

Entries after “also recorded” stand apart in the source; their conditions may differ.

Chain of ectodomains of RER (as listed by the source): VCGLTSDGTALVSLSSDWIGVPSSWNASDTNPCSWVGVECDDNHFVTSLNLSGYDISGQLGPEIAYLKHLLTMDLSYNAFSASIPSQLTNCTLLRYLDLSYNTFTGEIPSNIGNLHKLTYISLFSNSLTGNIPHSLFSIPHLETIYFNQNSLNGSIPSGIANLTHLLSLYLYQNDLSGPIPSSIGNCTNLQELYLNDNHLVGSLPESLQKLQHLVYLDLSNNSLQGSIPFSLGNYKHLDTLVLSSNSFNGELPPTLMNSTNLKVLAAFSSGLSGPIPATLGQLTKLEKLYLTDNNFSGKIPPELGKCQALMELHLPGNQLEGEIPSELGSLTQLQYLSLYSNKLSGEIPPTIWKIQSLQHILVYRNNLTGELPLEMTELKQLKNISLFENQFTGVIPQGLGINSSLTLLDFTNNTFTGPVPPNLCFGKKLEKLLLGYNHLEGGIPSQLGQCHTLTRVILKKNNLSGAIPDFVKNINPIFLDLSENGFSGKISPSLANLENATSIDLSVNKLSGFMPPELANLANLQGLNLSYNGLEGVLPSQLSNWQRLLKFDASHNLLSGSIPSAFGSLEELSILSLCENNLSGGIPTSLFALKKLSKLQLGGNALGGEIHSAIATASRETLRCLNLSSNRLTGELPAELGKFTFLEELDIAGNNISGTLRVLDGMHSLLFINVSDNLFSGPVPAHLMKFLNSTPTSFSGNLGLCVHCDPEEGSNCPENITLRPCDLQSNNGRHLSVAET

Regarding “ATDRRGRPPSRPKVGSGPPPQNN (listed as Solanum lycopersicum) [REF1, 23 amino acid tomato peptide cleaved from precursor PROSIPEP]”, in the test on ectodomains of RER, the “binding to RER ectodomain (pull-down)” value was “binds”. Also, in test [1], the “complex formation of RER with SERK1, SERK3a and SERK3b (co-IP)” value is “could simulate complex formation; also recorded: REF1-dependent”. Further, the “rescue of compromised regenerative capacity” value in test [2] (sIwind1 mutants) is reported as “could not be rescued”. Further, the “rescue of regenerative defects (callus formation, shoot organogenesis)” value in test [2] (serk3a-1, serk3b-1 and serk3a-1 serk3b-1 mutants) is “failed to rescue”. In addition, the “binding-mediated activation of receptor RER (pFRK1::LUC expression)” value in the test on RER (100 nM) was “bound”. The “binding affinity of REF1 to its receptor RER” value in the test with RER (indicated concentrations) is listed as “high affinity”. Further, in the test on PI126944 tomatoes, the number of hypocotyl entry is listed as “higher”; the “relative regeneration frequency, increase” value was determined as 5.5 fold; the shoot regeneration result is “greater shoot regeneration; also recorded: promotes shoot regeneration”.
